Here are results for seven compounds from US6512166B1, “Combinations of fungal cell wall degrading enzyme and fungal cell membrane affecting compound” (priority 1991, dated 2003).

The test system of one data set is B. cinerea. To be noted: against B. cinerea, Watanabe et al; cited from earlier work.
Data set [1] deals with Fusarium oxysporum strain FOP1. The experiment in a line: Inhibition of spore germination, ELISA plate assay (Examples V-XIV, XVII). To be noted: for inhibition of spore germination: FIG. 8. The format is cell-based. The procedure:
(§1) The concentration where fungal cell wall degrading enzyme individually provides a specified percentage fungal inhibition or where antifungal fungal cell membrane affecting compound individually provides a specific percentage fungal inhibition can be determined as follows: Assays are performed under sterile conditions. Equal volumes of spore suspensions, 3× potato dextrose broth, and the test solution or suspension in 5 mM Tris-HCl (pH 6.0) or 5 mM potassium phosphate buffer (pH 6.7) are mixed. The control is the same as the test solution except for the control the antifungal agent is omitted. The assay mixtures (total volume 45 or 30 μl) are incubated on flat-bottomed ELISA plates, each containing 96 wells, with 2,000 to 3,000 spores per well, at 25° C. After 22 to 30 hours, the plates are placed under an inverted microscope. The percentage of conidia germinating is determined as the percentage of the first 100 spores randomly found in a well. In addition, the lengths of 20 germ tubes are measured and averaged. All experiments are performed twice, with three replicates for each treatment. The inhibition values obtained in the two experiments are combined and averaged, and standard deviations are calculated from the 6 data points. The values obtained for the control are taken as 0% inhibition and all other values are divided by the values obtained for the control and multiplied by 100% to obtain percent inhibition. Determination of concentration corresponding to a particular percent inhibition is carried out by subjecting dose-response curves to regression analysis by using a binomial regression of the third order, with R^2 ranging between 0.95 and 0.99.
(§2) Assays were carried out by the procedure described in the summary of the invention section. Dose response curves were obtained by probit analysis of data collected from two separate experiments with each experiment involving three treatment replicates.
(§3) Dose response curves were determined for each antifungal fungal cell membrane affecting compound and for each fungal cell wall degrading enzyme singly. Then each fungal cell wall degrading enzyme at a concentration giving 10% inhibition when used alone was combined with increasing amounts of antifungal fungal cell membrane affecting compound. Then the concentration of antifungal fungal cell membrane affecting compound causing the ED50 for each combination was calculated by probit analysis of data collected from two experiments with three treatment replicates for each experiment. Assays for inhibition of spore germination were carried out as described in the summary of invention section above.
The relative level of synergism (RS below) for each combination was calculated by applying Limpel's formula: Ee=X+Y−(XY/100) as described in Richer, D. L, Pestic. Sci. 19, 309-315, 1987. In Limpel's formula, X and Y are the percentages of inhibition relative to each compound used alone and Ee is the expected effect for an additional (non-synergistic) effect. If the combination of the two agents produces an observed effect (Eo) greater than Ee, synergism exists, and as the difference between Eo and Ee increases, the level of synergism is greater. In this experiment, the X value (percentage inhibition by fungal cell wall degrading enzyme when used alone was chosen to be 10 (10% inhibition of spore germination when used alone) and the observed effect, Eo, was 50 (i.e., 50% inhibition of spore germination). The Y values were obtained from the determined concentrations of antifungal cell membrane affecting compound causing the ED50 for a combination and the dose response curves for the antifungal cell membrane affecting compound used alone—i.e., the Y value was the percent inhibition for the antifungal fungal cell membrane affecting compound when used alone for the concentration of antifungal fungal cell membrane affecting compound that was determined to cause the ED50 for the combination. Ee values were then calculated from Limpel's formula. […]

Another data set relates to B. cinerea strain 12. Description: Inhibition of spore germination, ELISA plate assay (Examples III-XVI, XVIII). Type of data set: cell-based, Botrytis cinerea. The note with it: for ED50: alone or with enzyme at its ED10 concentration; for inhibition of spore germination: FIG. 7. Here is the method: as §1, §2
Each of 8 antifungal fungal cell membrane affecting compounds were used in combination with each of 8 or 6 fungal cell wall degrading enzymes to provide 50% inhibition (ED50) of B. cinerea strain 12 spore germination. Each fungal cell wall degrading enzyme was used at a concentration giving 10% inhibition of spore germination when used alone in combination with an amount of antifungal fungal cell membrane affecting compound so the combination gave 50% inhibition of spore germination.
as §3
The relative level of synergism (RS below) for each combination was calculated by applying Limpel's formula: Ee=X+Y−(XY/100) as described in Richer, D. L, Pestic. Sci. 19, 309-315, 1987. In Limpel's formula, X and Y are the percentages of inhibition relative to each compound used alone and Ee is the expected effect for an additional (non-synergistic) effect. If the combination of the two agents produces an observed effect (Eo) greater than Ee, synergism exists, and as the difference between Eo and Ee increases, the level of synergism is greater. […]

Data set [2] in a line: Solubility, guidance for forming solutions. The text has this: Compositions for use in the systems herein are readily formulated by admixing the fungal cell wall degrading enzymes and the antifungal fungal cell membrane affecting compounds with non-toxic carriers appropriate for the particular use for a composition, e.g., agriculturally acceptable carriers for agricultural uses and pharmaceutically acceptable carriers for medicinal uses. They may be formulated as liquids (solutions or suspensions) or as solids. Since the fungal cell wall degrading enzymes need free water for activity, water must be present at the time of function. […] Water is a preferred vehicle where components are soluble in it. […] Organic solvents can also be used and may be required in some cases if a solution is desired. Guidance for forming solutions follows. […] Suspension can also be employed.

≈ marks a conversion by molar mass, not a printed value.

For `NC(=O)OC[C@H](O)[C@@H](O)[C@H](N)C(=O)N[C@H](C(=O)O)[C@H]1O[C@@H](n2cc(CO)c(=O)[nH]c2=O)[C@H](O)[C@@H]1O` [polyoxin B], the Minimum inhibitory concentration in the data set on B. cinerea is 12.5 µg/mL (≈ 24.6 µM).

Turning to `CC(C)OP(=O)(OC(C)C)SCc1ccccc1` [kitazin P], the Minimum inhibitory concentration in the data set with B. cinerea is 500 µg/mL (≈ 1730 µM).

For the compound trichorzianine B1 [Trich. B1], the ED50 in data set [1] (Table 27, concentration of trichorzianine B1 for 50% inhibition, alone or with enzyme at its ED10 concentration) is 95.5 (92-99) ng ml^−1; in the data set with B. cinerea strain 12 (Table 19, concentration of trichorzianine B1 for 50% inhibition), 95.2 (92-99) μg ml^−1. The “solubility (solvent in which the substance dissolves)” value (from here on “solubility”) in data set [2] was “readily dissolved in water”.

As to `CC(C)[C@@H]1NC(=O)[C@H](C)OC(=O)[C@@H](C(C)C)NC(=O)[C@@H](C(C)C)OC(=O)[C@H](C(C)C)NC(=O)[C@H](C)OC(=O)[C@@H](C(C)C)NC(=O)[C@@H](C(C)C)OC(=O)[C@H](C(C)C)NC(=O)[C@H](C)OC(=O)[C@@H](C(C)C)NC(=O)[C@@H](C(C)C)OC1=O` [Valinomycin, valinomycin], the ED in data set [1] (Table 24, concentration of valinomycin for 50% inhibition, alone or with enzyme at its ED10 concentration) was 8.5 (8.0-9.0) ng ml^−1. In the data set with B. cinerea strain 12 (Table 16, concentration of valinomycin for 50% inhibition), the ED50 is 7.3 (7.0-7.6) μg ml^−1. In addition, the “solubility” value in data set [2] was “dissolve in acetone”.

`CN1C(=O)[C@]23CC4=CC=C[C@H](O)[C@H]4N2C(=O)[C@@]1(CO)SS3` [Gliotoxin, gliotoxin]: the “solubility” value in data set [2] was “dissolves in methanol and ethanol”.

trichorzianine A1 [Trich. A1]: the ED50 in data set [1] (Table 26, concentration of trichorzianine A1 for 50% inhibition, alone or with enzyme at its ED10 concentration) is listed as 87 (83-91) ng ml^−1; in the data set on B. cinerea strain 12 (Table 18, concentration of trichorzianine A1 for 50% inhibition), 90.5 (85-95) μg ml^−1. In addition, the “solubility” value in data set [2] was “readily dissolved in water”.

Consider gramicidin, for which the ED50 was more than 300 ng/mL in data set [1] (Table 23, concentration of gramicidin for 50% inhibition, alone or with enzyme at its ED10 concentration) and more than 300 µg/mL with B. cinerea strain 12 (Table 15, concentration of gramicidin for 50% inhibition). The “inhibition of spore germination” value in data set [1] (gramicidin alone) is recorded as 20-25%; in data set [1] (gramicidin with glucosidase from T. harzianum strain P1 (10, 25 μg/ml)), “about 100%”; in the data set on B. cinerea strain 12 (gramicidin alone) it was 20-25%; with B. cinerea strain 12 (gramicidin with endochitinase from G. virens strain 41 (2.5, 5 μg/ml)) it was “about 100%”. Moreover, the “solubility” value in data set [2] is “dissolves in ethanol”.
